Results on 40 compounds are retold here after patent publication US7842808B2, “Anti-migraine spirocycles” (Bristol-Myers Squibb Company, priority 2002, dated 2010).

Where only a bound is given, the exact number is not on record here.

The target in the assay is T1, CGRP receptor (SK-N-MC cell membranes) (Homo sapiens, UniProt O60894+Q16602).
T1 construct: endogenous in cells; host or cells: SK-N-MC cells (membrane homogenate)
T1 sequence (Q16602 23-461): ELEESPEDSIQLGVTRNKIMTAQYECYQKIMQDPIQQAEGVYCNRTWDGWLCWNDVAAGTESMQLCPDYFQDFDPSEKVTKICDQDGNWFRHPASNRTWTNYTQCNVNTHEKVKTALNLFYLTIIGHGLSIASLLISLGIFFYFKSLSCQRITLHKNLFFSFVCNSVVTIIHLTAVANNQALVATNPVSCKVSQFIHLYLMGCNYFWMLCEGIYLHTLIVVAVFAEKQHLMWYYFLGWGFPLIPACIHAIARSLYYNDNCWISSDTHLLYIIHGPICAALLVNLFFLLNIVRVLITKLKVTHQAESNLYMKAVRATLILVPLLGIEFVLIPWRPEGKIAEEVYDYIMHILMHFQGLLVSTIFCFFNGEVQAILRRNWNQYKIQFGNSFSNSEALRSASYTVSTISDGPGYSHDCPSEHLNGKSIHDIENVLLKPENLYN
T1 sequence (O60894 27-148): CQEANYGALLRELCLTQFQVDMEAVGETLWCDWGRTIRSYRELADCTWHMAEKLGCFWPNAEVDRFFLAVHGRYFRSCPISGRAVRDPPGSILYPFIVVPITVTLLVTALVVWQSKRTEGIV
As to the kind of experiment: CGRP Binding Assay ([125I]-CGRP radioligand binding, SK-N-MC homogenate). As to conditions: displacement of [125I]-CGRP, SK-N-MC homogenate; read-out: CGRP binding IC50. The procedure:
Tissue Culture. SK-N-MC cells were grown at 37° C. in 5% CO2 as a monolayer in medium consisting of MEM with Earle's salts and L-glutamine (Gibco) supplemented with 10% fetal bovine serum (Gibco).
Cell Pellets. […] The cells were transferred from plates to polypropylene tubes (16×100 mm) and homogenized using a polytron. Homogenates were centrifuged at 32,000×g for 30 min. The pellets were resuspended in cold hypotonic lysis buffer with 0.1% mammalian protease inhibitor cocktail (Sigma) and assayed for protein concentration. The SK-N-MC homogenate was then aliquoted and stored at −80° C. until needed.
Radioligand Binding Assay. The compounds of invention were solubilized and carried through serial dilutions using 100% DMSO. Aliquots from the compound serial dilutions were further diluted 25 fold into assay buffer (50 mM Tris-Cl pH 7.5, 5 mM MgCl2, 0.005% Triton X-100) and transferred (volume 50 μl) into 96 well assay plates. […] SK-N-MC pellets were thawed, diluted in assay buffer with fresh 0.1% mammalian protease inhibitor cocktail (Sigma), and homogenized again. SK-N-MC homogenate (5 μg/well) was added in a volume of 100 μl. The assay plates were then incubated at room temperature for 2 h. Assays were stopped by addition of excess cold wash buffer (20 mM Tris-Cl pH 7.5, 0.1% BSA) immediately followed by filtration over glass fiber filters (Whatman GF/B) previously soaked in 0.5% PEI. Non-specific binding was defined with 1 μM beta-CGRP. Protein bound radioactivity was determined using a gamma or scintillation counter.
Background: Loss of bound radioactivity is the signal in a displacement assay; it reports binding, not function.
Turning to `O=C(Nc1cccc(Cl)c1)N[C@@H](CC(=O)N1CCC(N2Cc3ccccc3NC2=O)CC1)C(=O)N1CCC(N2CCCCC2)CC1` [Example 178], the IC50 lay within 10 to 100 nM. As for `Cc1cccc(NC(=O)N[C@@H](CC(=O)N2CCC(N3Cc4ccccc4NC3=O)CC2)C(=O)N2CCC(N3CCCCC3)CC2)c1C` [Example 151], the figure is 100 to 1000 nM. As for `Cc1cc(Cl)ccc1NC(=O)N[C@@H](CC(=O)N1CCC(N2Cc3ccccc3NC2=O)CC1)C(=O)N1CCC(N2CCCCC2)CC1` [Example 191], the figure is 100 to 1000 nM; as for `O=C(N[C@@H](CC(=O)N1CCC(N2Cc3ccccc3NC2=O)CC1)C(=O)N1CCC(N2CCCCC2)CC1)c1cc(C(F)(F)F)cc(C(F)(F)F)c1` [Example 107], 100 to 1000 nM. In the case of `O=C(Nc1ccc(C(F)(F)F)cc1)N[C@@H](CC(=O)N1CCC(N2Cc3ccccc3NC2=O)CC1)C(=O)N1CCC(N2CCCCC2)CC1` [Example 160], the half-inhibitory concentration (IC50) lay in the range of 100 to 1000 nM. As for `Cc1ccc(NC(=O)N[C@@H](CC(=O)N2CCC(N3Cc4ccccc4NC3=O)CC2)C(=O)N2CCC(N3CCCCC3)CC2)cc1Cl` [Example 186], the figure is 100 to 1000 nM. `O=C(N[C@@H](CC(=O)N1CCC(N2Cc3ccccc3NC2=O)CC1)C(=O)N1CCC(N2CCCCC2)CC1)c1cc(Cl)cc(Cl)c1` [Example 108]: the IC50 is 100 to 1000 nM.

`O=C(Nc1cccc(C(F)(F)F)c1)N[C@@H](CC(=O)N1CCC(N2Cc3ccccc3NC2=O)CC1)C(=O)N1CCC(N2CCCCC2)CC1` [Example 153]: the IC50 lay within 100 to 1000 nM. For `O=C(N[C@@H](CC(=O)N1CCC(N2Cc3ccccc3NC2=O)CC1)C(=O)N1CCC(N2CCCCC2)CC1)c1cc(F)cc(F)c1` [Example 122], the IC50 was in the range of 100 to 1000 nM. The value for `O=C(Nc1ccc(F)c(Cl)c1)N[C@@H](CC(=O)N1CCC(N2Cc3ccccc3NC2=O)CC1)C(=O)N1CCC(N2CCCCC2)CC1` [Example 193] was 10 to 100 nM; that for `Cc1ccc(NC(=O)N[C@@H](CC(=O)N2CCC(N3Cc4ccccc4NC3=O)CC2)C(=O)N2CCC(N3CCCCC3)CC2)c(C)c1` [Example 185] was 100 to 1000 nM. The value for `COC(=O)C(Cc1cc(C)c2[nH]ncc2c1)NC(=O)N1CCC2(CC1)OC(=O)Nc1ccccc12` (stereo not shown) [Example 14, 3-(7-Methyl-1H-indazol-5-yl)-2-(1,2-dihydro-2-oxospiro-4H-3,1-dihydro-benzoxazine-4′4-piperidine-carbonylamino)-propionic acid methyl ester] was above 1000 nM; that for `O=C(Nc1ccc(F)c(F)c1F)N[C@@H](CC(=O)N1CCC(N2Cc3ccccc3NC2=O)CC1)C(=O)N1CCC(N2CCCCC2)CC1` [Example 168] was 100 to 1000 nM; that for `COc1cccc(NC(=O)N[C@@H](CC(=O)N2CCC(N3Cc4ccccc4NC3=O)CC2)C(=O)N2CCC(N3CCCCC3)CC2)c1` [Example 150] was 10 to 100 nM. For `Cc1nc(N[C@@H](CC(=O)N2CCC(N3Cc4ccccc4NC3=O)CC2)C(=O)N2CCC(N3CCCCC3)CC2)nc(N)c1[N+](=O)[O-]` [Example 90, (L)-2-(4-Amino-6-methyl-5-nitro-pyrimidin-2-ylamino)-1-[1,4′]bipiperidinyl-1′-yl-4-[4-(2-oxo-1,4-dihydro-2H-quinazolin-3-yl)-piperidin-1-yl]-butane-1,4-dione], the IC50 was 10 to 100 nM. For `CCCNC(=O)N[C@@H](CC(=O)N1CCC(N2Cc3ccccc3NC2=O)CC1)C(=O)N1CCC(N2CCCCC2)CC1` [Example 183], the IC50 was 100 to 1000 nM. As for `COC(=O)c1cccc(NC(=O)N[C@@H](CC(=O)N2CCC(N3Cc4ccccc4NC3=O)CC2)C(=O)N2CCC(N3CCCCC3)CC2)c1` [Example 196], the figure is 10 to 100 nM; as for `O=C(NC(Cc1ccc2[nH]ncc2c1)C(=O)N1CCN(C/C=C/c2ccccc2)CC1)N1CCC(N2Cc3ccccc3NC2=O)CC1` (stereo not shown) [Example 40j], above 1000 nM. As for `O=C(NCCc1ccccc1)N[C@@H](CC(=O)N1CCC(N2Cc3ccccc3NC2=O)CC1)C(=O)N1CCC(N2CCCCC2)CC1` [Example 138], the figure is 100 to 1000 nM; as for `Cc1ccccc1NC(=O)N[C@@H](CC(=O)N1CCC(N2Cc3ccccc3NC2=O)CC1)C(=O)N1CCC(N2CCCCC2)CC1` [Example 141], 100 to 1000 nM; as for `O=C(Nc1ccccc1F)N[C@@H](CC(=O)N1CCC(N2Cc3ccccc3NC2=O)CC1)C(=O)N1CCC(N2CCCCC2)CC1` [Example 171], 10 to 100 nM. The value for `O=C(N[C@@H](CC(=O)N1CCC(N2Cc3ccccc3NC2=O)CC1)C(=O)N1CCC(N2CCCCC2)CC1)c1cccc(OC(F)(F)F)c1` [Example 121] was 100 to 1000 nM; that for `O=C(Nc1ccccc1)N[C@@H](CC(=O)N1CCC(N2Cc3ccccc3NC2=O)CC1)C(=O)N1CCC(N2CCCCC2)CC1` [Example 143] was 100 to 1000 nM.

For the compound `CC(=O)c1cccc(NC(=O)N[C@@H](CC(=O)N2CCC(N3Cc4ccccc4NC3=O)CC2)C(=O)N2CCC(N3CCCCC3)CC2)c1` [Example 147], the IC50 lay within 100 to 1000 nM.

Consider `Cc1cc(CC(NC(=O)N2CCC3(CC2)OC(=O)Nc2ccccc23)C(=O)NCc2ccncc2)cc2cn[nH]c12` (racemic) [Example 30, (±)-1′,2′-Dihydro-2′-oxospiro-[4H-3′,1-benzoxazine-4,4′-piperidine-1-carboxylic acid {2-(7-methyl-1H-indazol-5-yl)-1-[(pyridin-4-ylmethyl)-carbamoyl]-ethyl}-amide], for which the IC50 is 10 to 100 nM. As for `CCOC(=O)c1ccc(NC(=O)N[C@@H](CC(=O)N2CCC(N3Cc4ccccc4NC3=O)CC2)C(=O)N2CCC(N3CCCCC3)CC2)cc1` [Example 182], the figure is 100 to 1000 nM; as for `O=C(NCc1ccccc1)N[C@@H](CC(=O)N1CCC(N2Cc3ccccc3NC2=O)CC1)C(=O)N1CCC(N2CCCCC2)CC1` [Example 145], 100 to 1000 nM; as for `COC(=O)[C@H](Cc1ccccc1)NC(=O)N[C@@H](CC(=O)N1CCC(N2Cc3ccccc3NC2=O)CC1)C(=O)N1CCC(N2CCCCC2)CC1` [Example 166], 100 to 1000 nM. The value for `COc1cc(NC(=O)N[C@@H](CC(=O)N2CCC(N3Cc4ccccc4NC3=O)CC2)C(=O)N2CCC(N3CCCCC3)CC2)cc(OC)c1` [Example 165] was 100 to 1000 nM; that for `O=C(Nc1ccc(Cl)cc1C(F)(F)F)N[C@@H](CC(=O)N1CCC(N2Cc3ccccc3NC2=O)CC1)C(=O)N1CCC(N2CCCCC2)CC1` [Example 188] was 100 to 1000 nM; that for `Cc1cc(CC(NC(=O)N2CCC(N3Cc4ccccc4NC3=O)CC2)C(=O)O[C@@H](C)c2ccncc2)cc2cn[nH]c12` (stereo partly drawn) [Example 41f, 3-(7-Methyl-1H-indazol-5-yl)-2-{[4-(2-oxo-1,4-dihydro-2H-quinazolin-3-yl)-piperidine-1-carbonyl]-amino}-propionic acid(S)-1-pyridin-4-yl-ethyl ester] was 10 to 100 nM. On to `O=C(N[C@@H](CC(=O)N1CCC(N2Cc3ccccc3NC2=O)CC1)C(=O)N1CCC(N2CCCCC2)CC1)c1cccc(F)c1` [Example 105], for which the IC50 was 100 to 1000 nM. As to `O=C1Cc2cc(C[C@@H](NC(=O)N3CCC(N4Cc5ccccc5NC4=O)CC3)C(=O)N3CCC(N4CCCCC4)CC3)ccc2N1` [Example 50, (R)-4-(2-Oxo-1,4-dihydro-2H-quinazolin-3-yl)-piperidine-1-carboxylic acid[2-[1,4′]bipiperidinyl-1′-yl-2-oxo-1-(2-oxo-2,3-dihydro-1H-indol-5-ylmethyl)-ethyl]-amide], the IC50 was below 10 nM.

Consider `O=C(N[C@@H](CC(=O)N1CCC(N2Cc3ccccc3NC2=O)CC1)C(=O)N1CCC(N2CCCCC2)CC1)c1cc2ccccc2s1` [Example 126], for which the IC50 is 100 to 1000 nM.

`O=C(N[C@@H](CC(=O)N1CCC(N2Cc3ccccc3NC2=O)CC1)C(=O)N1CCC(N2CCCCC2)CC1)c1ccc(F)c(F)c1` [Example 102]: the IC50 is 100 to 1000 nM. The value for `O=C(NC(Cc1ccc(OCc2ccccc2)nc1)C(=O)N1CCC(N2CCCCC2)CC1)N1CCC(N2Cc3ccccc3NC2=O)CC1` (racemic) [Example 59, (±)-4-(2-Oxo-1,4-dihydro-2H-quinazolin-3-yl)-piperidine-1-carboxylic acid[1-(6-benzyloxy-pyridin-3-ylmethyl)-2-[1,4′]bipiperidinyl-1′-yl-2-oxo-ethyl]-amide] was 100 to 1000 nM; that for `COC(=O)C(Cc1cc(C)c2[nH]ncc2c1)NC(=O)N1CCC2(CC1)NC(=O)Nc1ccccc12` (stereo not shown) [Example 13, 3-(7-Methyl-1H-indazol-5-yl)-2-[2′,3′-dihydro-2′-oxospiro-(piperidine-4,4′-(1H)-quinazoline)carbonylamino]-propionic acid methyl ester] was 100 to 1000 nM; that for `O=C(Nc1c(F)cccc1F)N[C@@H](CC(=O)N1CCC(N2Cc3ccccc3NC2=O)CC1)C(=O)N1CCC(N2CCCCC2)CC1` [Example 163] was 100 to 1000 nM. `O=C(Nc1ccc(Cl)c(C(F)(F)F)c1)N[C@@H](CC(=O)N1CCC(N2Cc3ccccc3NC2=O)CC1)C(=O)N1CCC(N2CCCCC2)CC1` [Example 152]: the IC50 lay within 100 to 1000 nM. With `O=C(N[C@@H](CC(=O)N1CCC(N2Cc3ccccc3NC2=O)CC1)C(=O)N1CCC(N2CCCCC2)CC1)c1ccc([N+](=O)[O-])o1` [Example 124], the IC50 was in the range of 100 to 1000 nM.

As a reminder, the IC50 is the concentration at which inhibition is half-maximal.
